Source: article PMC11855230, “Oligoethylene Phosphoramidate‐Based Kinase Inhibitor Prodrugs – Solubility, Enzyme Inhibition, and Hydrolysis” (Chemistry (Weinheim an Der Bergstrasse, Germany), 2025)
pIC50: −log10 of the molar value. Converted amounts (≈) assume the structure as drawn. “And” between values parts separate entries of the source, which are not always exact repeats. Equal entries are not always repeated. Where two headings read alike, the source gives them in different places. Marks after values point to notes of the source that are not given here.

Experiments:
[1] = set-up: method as in PMID 38923708; conditions: kinetic solubility, cited from earlier work
[2] = Dynamic light scattering (DLS) of drug‐conjugates in water; type: physicochemical; conditions: for PDI / hydrodynamic diameter: DLS in water, at the concentration given per compound (Figures S2–S5); for hydrodynamic diameter d: DLS in water at critical solution concentration c sol, 25 °C
Procedure: To study, whether self‐assembly into micelles might have an effect on the solubility limit of the prodrugs, we perform dynamic light scattering (DLS) of the drug‐conjugates in water. […] Micelles below 6 nm (Cer‐OEG8 , Cri‐OEG3 , Cri‐OEG8 , Pal‐OEG3 , Rib‐OEG2 , and Rib‐OEG3 ) are potentially affected by renal clearance.
Dynamic Light Scattering (DLS): Possible self‐assemblies are investigated with DLS Nano‐Zetasizer (Malvern Instruments) at 25 °C with a scattering angle of 173° at λ=633 nm.

[3] = molecular target: T1, ROS proto‐oncogene 1 (ROS1) (Homo sapiens, UniProt P08922); experiment: ROS1 cell free enzyme (kinase) inhibition assay, luminescence; type: biochemical; conditions: 1 % DMSO, duplicates
T1 construct: purchased biomol
Procedure: (§1) Apart from solubility and self‐assembly, we investigate the inhibitory potential against the respectively targeted receptors.
(§2) Enzyme Binding Studies (ROS1):[21] ROS1 assays are performed with the following substances: Cer‐OEG2 , Cer‐OEG3 , Cer‐OEG8 , Cri‐OEG2 , Cri‐OEG3 and Cri‐OEG8 . The instructions are followed with some specifications: DTT (10 μL of 1 M DTT to 1 mL buffer) is added to the buffer solution and the assay is performed with 1 % DMSO in the final reaction volume. Serial dilutions of inhibitor (5 μL) are mixed with 20 μL enzyme (5 ng/μL), 5 μL of IGF‐1Rtide (1 mg/mL) and 1 μL ATP solution (500 μM) in a 96‐well plate. The blank contains no enzyme and no inhibitor. The positive control contains enzyme but no inhibitor. The receptor inhibitory rate is calculated from the luminescence as IC50. […] Luminescence is recorded on Promega GloMax Navigator Microplate Luminometer. Samples are prepared in duplicates.

[4] = pH dependent hydrolysis / drug release by HPLC; type: physicochemical; conditions: acetate buffer, pH 3, 37 °C
From the text: The working principle of a prodrug is to improve solubility and circulation time and not necessarily to improve binding to the target. However, binding should of course become important when the prodrug has arrived at the designated site and the promoiety is cleaved to release the native drug. In case of the phosphoramidate linked OEG chains, release of the native drug is induced by hydrolysis at low pH.[21, 28, 29, 30, 31, 32] The stability of the phosphoramidate linker and therefore its half‐life depends on the chemical surrounding in the molecule.[28, 29] Since we only change distant substituents by varying the binding motif of the respective kinase inhibitor, we expect only minor influence on the rate of hydrolysis. We investigate the samples at pH 3, 4, 5, 6, and 7.4 over a course of 72 h at 37 °C using high pressure liquid chromatography (HPLC) (see Figure S10–13 and Table S1–11). […]
High Performance Liquid Chromatography (HPLC): Drug release is monitored on Agilent 1260 Infinity containing the following modules: G1311B Quat Pump, G1329B ALS, G1365D MWD VL in combination with a Jetstream 2 plus column thermostat. […] Flow rate is set to 0.3 mL/min and absorption is detected at 254 nm. […]
pH Dependent Hydrolysis:[21] […] Drug release percentages are calculated form the ratio of the peak area of drug and drug‐OEG conjugate for 0, 3, 6, 24, 48 and 72 h.

[5] = Solubility limit in water (kinetic solubility) by UV/Vis optical density at 600 nm; type: physicochemical; conditions: kinetic from dmso stock, absorption at 600 nm, read-out: c sol (water), solubility limit in water
From the text: With all purified compounds in hand, we start to analyze the different properties of the conjugates and discuss the influence of the OEG‐chain lengths. We determine the solubility in water with UV/Vis spectroscopy by measuring the optical density at 600 nm. The absorption (A) is plotted against varying concentration (c) of the drug conjugates (see Figure S1). In the range, in which the drug and their conjugates are still soluble, A can be fitted linearly. When the solubility limit is reached, the drug crashes out of solution leading to scattering and reduced transmission manifesting a threshold, upon which the increase in absorption is fitted with a second line of higher slope. The intersection between the two linear fits gives the critical concentration for the kinetic solubility c sol. Detailed solubility plots can be found in the supporting information (see Figure S1). In our previous study with n=4, the solubility of all three kinase inhibitor prodrugs in water is improved over the native drug. However, the extent of improvement varies between the different kinase inhibitor prodrugs. For a better overview, we have included the performance of our previous study (see Figure 2).[21] […] We observe an improvement of solubility upon conjugation with all of our different OEG‐phosphates.
UV‐Vis Spectroscopy: Changes in solubility are measured with a Lambda 365 spectrometer by PerkinElmer supplied with UV WinLab software. Samples are prepared in water and placed in a 1 cm quartz cuvette.

[6] = molecular target: T2, cyclin‐dependent kinase 4 (CDK4) (Homo sapiens, UniProt P11802); experiment: CDK4 cell free enzyme (kinase) inhibition assay, luminescence; type: biochemical; conditions: 1 % DMSO, duplicates
T2 construct: purchased biomol
Procedure: as §1
as §2, with “Binding Assays (CDK4):[21] […]” for “Binding Studies (ROS1):[21] ROS1 assays are performed with the following substances: Cer‐OEG2 , Cer‐OEG3 , Cer‐OEG8 , Cri‐OEG2 , Cri‐OEG3 and Cri‐OEG8 .”, “enzyme (10” for “enzyme (5”, “of 10x CDK4 substrate peptide” for “of IGF‐1Rtide (1 mg/mL)”

[7] = system: HeLa cells; experiment: Cell uptake in HeLa cells by confocal laser scanning microscopy (CLSM); type: cell-based; conditions: 25 μM, 23 h, excitation 405 nm
Procedure: Altogether an OEG chain length of n=4 seems to be favorable for producing prodrugs with improved solubility from kinase inhibitors. […] Here we therefore concentrate on Rib‐OEG4 . […] The drug and its conjugate are exited at 405 nm, leading to weak fluorescence of the drugs.
Uptake is followed by Confocal for 23 h using Leica TCS SP8 Lightning confocal microscope with an OnkoLab incubator chamber with a constant temperature of 37 °C and a 5 % CO2 atmosphere at 95 % humidity (gas flow: 0.1 L/min). Drug and drug‐OEG conjugate is excited at 405 nm.

[8] = system: HeLa cells; experiment: Cellular drug release in HeLa cells, LC–MS of cell lysate; type: cell-based; conditions: 20 μM, 48 h
Procedure: HeLa cells are treated with Rib‐OEG4 for 48 h followed by cell lysis. The cell lysate is analyzed with liquid chromatography‐mass spectrometry (LC–MS). […] This confirms that release of the drug is possible in cells and that the low pH in some of the cell compartments, such as the lysosomes, yield release of the effective drug molecule.
Cellular Drug‐Release with LC–MS: Drug release studies are performed according to previous publication with 20 μM of Rib‐OEG4 .[21]

[9] = values marked a from previous publication ref 21

T1 sequence (P08922 28-2347): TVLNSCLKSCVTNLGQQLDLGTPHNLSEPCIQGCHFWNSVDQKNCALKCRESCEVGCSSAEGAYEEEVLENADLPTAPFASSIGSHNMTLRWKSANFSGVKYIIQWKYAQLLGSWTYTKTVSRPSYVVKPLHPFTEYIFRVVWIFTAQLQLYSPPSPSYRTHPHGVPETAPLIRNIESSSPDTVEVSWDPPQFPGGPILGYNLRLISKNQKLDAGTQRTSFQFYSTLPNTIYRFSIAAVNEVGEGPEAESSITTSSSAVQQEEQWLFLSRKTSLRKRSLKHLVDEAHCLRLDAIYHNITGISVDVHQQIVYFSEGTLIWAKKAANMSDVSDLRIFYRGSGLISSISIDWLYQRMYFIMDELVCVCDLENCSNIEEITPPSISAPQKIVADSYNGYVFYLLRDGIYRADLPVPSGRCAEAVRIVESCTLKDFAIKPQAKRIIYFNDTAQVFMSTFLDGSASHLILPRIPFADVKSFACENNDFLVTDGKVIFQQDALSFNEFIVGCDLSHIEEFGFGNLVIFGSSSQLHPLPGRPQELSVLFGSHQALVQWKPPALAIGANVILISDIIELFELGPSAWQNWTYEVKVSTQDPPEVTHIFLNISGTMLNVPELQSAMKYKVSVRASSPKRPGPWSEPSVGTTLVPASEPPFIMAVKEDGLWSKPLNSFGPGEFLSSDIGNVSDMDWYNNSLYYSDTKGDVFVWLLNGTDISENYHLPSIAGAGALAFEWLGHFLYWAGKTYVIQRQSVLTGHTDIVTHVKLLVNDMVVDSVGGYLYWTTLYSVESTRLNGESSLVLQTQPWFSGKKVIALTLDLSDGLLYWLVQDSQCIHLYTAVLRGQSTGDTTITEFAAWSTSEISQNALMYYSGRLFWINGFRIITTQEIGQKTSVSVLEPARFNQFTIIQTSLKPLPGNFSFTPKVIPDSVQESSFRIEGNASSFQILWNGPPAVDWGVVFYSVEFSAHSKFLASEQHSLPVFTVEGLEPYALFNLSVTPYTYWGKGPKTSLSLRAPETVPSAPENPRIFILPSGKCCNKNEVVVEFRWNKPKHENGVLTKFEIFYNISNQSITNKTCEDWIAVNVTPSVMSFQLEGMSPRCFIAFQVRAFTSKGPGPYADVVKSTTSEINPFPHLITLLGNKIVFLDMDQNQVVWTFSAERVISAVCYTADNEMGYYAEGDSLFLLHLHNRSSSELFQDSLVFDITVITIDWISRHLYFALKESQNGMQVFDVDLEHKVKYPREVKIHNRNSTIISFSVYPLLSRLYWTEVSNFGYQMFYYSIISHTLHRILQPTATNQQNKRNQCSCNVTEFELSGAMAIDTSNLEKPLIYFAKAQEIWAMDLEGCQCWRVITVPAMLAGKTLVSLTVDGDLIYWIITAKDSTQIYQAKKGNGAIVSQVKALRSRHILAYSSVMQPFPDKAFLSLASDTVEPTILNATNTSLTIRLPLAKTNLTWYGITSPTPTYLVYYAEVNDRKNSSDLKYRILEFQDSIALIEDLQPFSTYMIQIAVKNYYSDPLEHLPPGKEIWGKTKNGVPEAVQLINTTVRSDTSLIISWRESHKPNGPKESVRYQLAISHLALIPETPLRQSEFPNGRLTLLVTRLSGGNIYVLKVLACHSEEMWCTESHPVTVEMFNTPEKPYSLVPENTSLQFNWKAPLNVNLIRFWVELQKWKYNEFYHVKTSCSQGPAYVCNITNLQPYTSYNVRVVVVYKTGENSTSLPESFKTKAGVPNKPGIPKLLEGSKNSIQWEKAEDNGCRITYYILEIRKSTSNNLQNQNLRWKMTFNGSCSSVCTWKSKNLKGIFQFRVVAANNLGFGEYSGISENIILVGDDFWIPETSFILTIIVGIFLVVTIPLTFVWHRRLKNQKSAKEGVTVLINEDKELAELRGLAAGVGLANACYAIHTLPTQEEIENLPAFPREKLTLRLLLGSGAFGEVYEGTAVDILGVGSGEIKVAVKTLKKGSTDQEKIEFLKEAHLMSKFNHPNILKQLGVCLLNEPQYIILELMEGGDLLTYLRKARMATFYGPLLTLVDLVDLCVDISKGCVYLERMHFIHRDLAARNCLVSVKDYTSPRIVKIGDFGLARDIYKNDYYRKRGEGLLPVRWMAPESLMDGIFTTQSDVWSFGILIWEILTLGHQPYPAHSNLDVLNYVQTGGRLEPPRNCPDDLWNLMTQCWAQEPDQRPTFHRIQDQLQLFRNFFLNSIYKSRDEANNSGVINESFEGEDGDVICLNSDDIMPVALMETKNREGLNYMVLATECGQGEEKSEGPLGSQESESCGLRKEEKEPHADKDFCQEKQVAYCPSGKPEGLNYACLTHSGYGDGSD
T2 sequence (P11802 whole entry): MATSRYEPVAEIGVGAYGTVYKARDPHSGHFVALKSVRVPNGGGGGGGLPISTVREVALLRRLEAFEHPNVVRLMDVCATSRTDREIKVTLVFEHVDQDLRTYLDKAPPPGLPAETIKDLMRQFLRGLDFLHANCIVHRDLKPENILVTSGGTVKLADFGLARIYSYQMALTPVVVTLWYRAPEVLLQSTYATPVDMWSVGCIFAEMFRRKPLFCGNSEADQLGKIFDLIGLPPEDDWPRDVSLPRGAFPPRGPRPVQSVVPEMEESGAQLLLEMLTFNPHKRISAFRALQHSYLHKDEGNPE
T2 sequence (P30281 whole entry partner): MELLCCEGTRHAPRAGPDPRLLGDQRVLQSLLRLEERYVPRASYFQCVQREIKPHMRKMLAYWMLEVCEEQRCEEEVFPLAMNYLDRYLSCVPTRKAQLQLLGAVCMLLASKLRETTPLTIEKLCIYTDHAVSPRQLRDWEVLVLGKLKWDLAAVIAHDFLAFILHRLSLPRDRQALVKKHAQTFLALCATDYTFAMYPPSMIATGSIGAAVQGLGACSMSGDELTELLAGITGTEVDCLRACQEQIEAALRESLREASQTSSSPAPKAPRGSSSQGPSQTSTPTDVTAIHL

SMILES	PDI [2]	hydrodynamic diameter [2] [nm]	pIC50 [3]	solubility [5] [mM]	pIC50 [6]	other results
Cc1cc(Nc2ncc(Cl)c(Nc3ccccc3S(=O)(=O)C(C)C)n2)c(OC(C)C)cc1C1CCNCC1 [Ceritinib]						c sol (water), solubility limit in water ([1]; values marked a from previous publication ref 21, listed as Ceritninib): 0.93 mM; c sol (water), solubility limit in water [1, 9]: ≤0.93^a mM
COCCOCCOP(=O)(OCCOCCOC)N1CCC(c2cc(OC(C)C)c(Nc3ncc(Cl)c(Nc4ccccc4S(=O)(=O)C(C)C)n3)cc2C)CC1 [Cer‐OEG2]	0.46	565	7.00			
COCCOCCOCCOP(=O)(OCCOCCOCCOC)N1CCC(c2cc(OC(C)C)c(Nc3ncc(Cl)c(Nc4ccccc4S(=O)(=O)C(C)C)n3)cc2C)CC1 [Cer‐OEG3]	0.05	279	7.35			
COCCOCCOCCOCCOCCOCCOCCOCCOP(=O)(OCCOCCOCCOCCOCCOCCOCCOCCOC)N1CCC(c2cc(OC(C)C)c(Nc3ncc(Cl)c(Nc4ccccc4S(=O)(=O)C(C)C)n3)cc2C)CC1 [Cer‐OEG8]	0.25	4.9	7.00	1.75 (≈ 2400 µg/mL)		half-life [4]: 50 h
C[C@@H](Oc1cc(-c2cnn(C3CCNCC3)c2)cnc1N)c1c(Cl)ccc(F)c1Cl [Crizotinib]						c sol (water), solubility limit in water [1, 9]: ≤0.77 ^a mM
COCCOCCOP(=O)(OCCOCCOC)N1CCC(n2cc(-c3cnc(N)c(O[C@H](C)c4c(Cl)ccc(F)c4Cl)c3)cn2)CC1 [Cri‐OEG2]	0.03	151	7.30			
COCCOCCOCCOP(=O)(OCCOCCOCCOC)N1CCC(n2cc(-c3cnc(N)c(O[C@H](C)c4c(Cl)ccc(F)c4Cl)c3)cn2)CC1 [Cri‐OEG3]	0.02	3.7	7.35	19.1 (≈ 15700 µg/mL)		
COCCOCCOCCOCCOCCOCCOCCOCCOP(=O)(OCCOCCOCCOCCOCCOCCOCCOCCOC)N1CCC(n2cc(-c3cnc(N)c(O[C@H](C)c4c(Cl)ccc(F)c4Cl)c3)cn2)CC1 [Cri‐OEG8]	0.36	3.3	6.85	≤ 4.62		
CC(=O)c1c(C)c2cnc(Nc3ccc(N4CCNCC4)cn3)nc2n(C2CCCC2)c1=O [Palbociclib]						c sol (water), solubility limit in water [1, 9]: ≤0.02 ^a mM
COCCOCCOP(=O)(OCCOCCOC)N1CCN(c2ccc(Nc3ncc4c(C)c(C(C)=O)c(=O)n(C5CCCC5)c4n3)nc2)CC1 [Pal‐OEG2]	0.17	264			6.00	
COCCOCCOCCOP(=O)(OCCOCCOCCOC)N1CCN(c2ccc(Nc3ncc4c(C)c(C(C)=O)c(=O)n(C5CCCC5)c4n3)nc2)CC1 [Pal‐OEG3]	0.74	5		8.71 (≈ 7140 µg/mL)	6.57 to 6.67 and 6.67	
COCCOCCOCCOCCOCCOCCOCCOCCOP(=O)(OCCOCCOCCOCCOCCOCCOCCOCCOC)N1CCN(c2ccc(Nc3ncc4c(C)c(C(C)=O)c(=O)n(C5CCCC5)c4n3)nc2)CC1 [Pal‐OEG8]	0.33	596		≤ 3.16	6.57 to 6.67 and 6.57	hydrodynamic diameter d [2]: 596 nm
CN(C)C(=O)c1cc2cnc(Nc3ccc(N4CCNCC4)cn3)nc2n1C1CCCC1 [Ribociclib, reference compound]				0.49 (≈ 213 µg/mL)		uptake in HeLa cells [7]: taken up by the cells
COCCOCCOP(=O)(OCCOCCOC)N1CCN(c2ccc(Nc3ncc4cc(C(=O)N(C)C)n(C5CCCC5)c4n3)nc2)CC1 [Rib‐OEG2]	0.22	2.5		12.3 (≈ 8840 µg/mL)	6.96	
COCCOCCOCCOP(=O)(OCCOCCOCCOC)N1CCN(c2ccc(Nc3ncc4cc(C(=O)N(C)C)n(C5CCCC5)c4n3)nc2)CC1 [Rib‐OEG3]	0.15	1.8		13.5 (≈ 10900 µg/mL)	6.43	
COCCOCCOCCOCCOP(=O)(OCCOCCOCCOCCOC)N1CCN(c2ccc(Nc3ncc4cc(C(=O)N(C)C)n(C5CCCC5)c4n3)nc2)CC1 [Rib‐OEG4]	0.35	92		9.33 (≈ 8350 µg/mL)	7.92	uptake in HeLa cells [7]: taken up by the cells; hydrodynamic diameter d [2]: 92 nm; release of native drug from prodrug in HeLa cells [8]: most of the native drug has been released
COCCOCCOCCOCCOCCOCCOCCOCCOP(=O)(OCCOCCOCCOCCOCCOCCOCCOCCOC)N1CCN(c2ccc(Nc3ncc4cc(C(=O)N(C)C)n(C5CCCC5)c4n3)nc2)CC1 [Rib‐OEG8]	0.22	64		1.52 (≈ 1900 µg/mL)	6.40	hydrodynamic diameter d [2]: 64 nm
